Converted amounts (≈) assume the structure as drawn. One block for each molecule: values may come before it. The source made the active and inactive calls. The rule behind the calls is not given here.
Key:
Staphylococcus aureus [1] = assay: Antimicrobial activity against totarol-resistant Staphylococcus aureus K3090; assay type: functional
Staphylococcus aureus [2] = assay: Antimicrobial activity against Staphylococcus aureus K3092 overexpressing NorA gene; assay type: functional
Staphylococcus aureus [3] = assay: Antimicrobial activity against NorA deficient Staphylococcus aureus K1758; assay type: functional
Staphylococcus aureus [4] = assay: Antimicrobial activity against Staphylococcus aureus NCTC 8325-4 expressing NorA gene; assay type: functional
[5] = target: T1, Quinolone resistance protein NorA (Staphylococcus aureus, UniProt P0A0J7); assay: Inhibition of NorA efflux pump in Staphylococcus aureus K3092 assessed as inhibition of EtBr efflux
T1 sequence (P0A0J7 whole entry): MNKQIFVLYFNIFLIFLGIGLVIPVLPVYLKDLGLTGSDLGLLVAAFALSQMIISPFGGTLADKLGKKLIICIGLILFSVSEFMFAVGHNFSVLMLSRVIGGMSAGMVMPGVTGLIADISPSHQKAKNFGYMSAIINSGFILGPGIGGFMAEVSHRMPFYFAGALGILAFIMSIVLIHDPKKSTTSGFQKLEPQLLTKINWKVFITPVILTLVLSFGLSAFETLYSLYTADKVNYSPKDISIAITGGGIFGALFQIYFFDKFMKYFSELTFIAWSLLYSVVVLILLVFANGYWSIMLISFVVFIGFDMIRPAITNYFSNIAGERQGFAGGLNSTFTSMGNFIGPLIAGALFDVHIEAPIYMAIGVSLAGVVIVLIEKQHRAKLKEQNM

Staphylococcus aureus [6] = assay: Inhibition of tetK efflux pump in Staphylococcus aureus XU212 assessed as reduction in tetracycline MIC at 1 ug/ml
[7] = target: T2, Quinolone resistance protein NorA (Staphylococcus aureus) (UniProt P0A0J7); assay: Inhibition of NorA efflux pump in Staphylococcus aureus isolate15 assessed as potentiation of oxacillin MIC
T2 sequence (whole entry): T1 sequence (P0A0J7 whole entry)

[8] = target: T2, Quinolone resistance protein NorA (Staphylococcus aureus); assay: Inhibition of NorA efflux pump in Staphylococcus aureus K3092 assessed as reduction in ethidium bromide MIC
Staphylococcus aureus [9] = assay: Inhibition of MsrA efflux pump in Staphylococcus aureus RN4220 assessed as reduction in erythromycin MIC at 1 ug/ml
Staphylococcus aureus [10] = assay: Antimicrobial activity against Staphylococcus aureus ATCC 25923; assay type: functional
[11] = target: T2, Quinolone resistance protein NorA (Staphylococcus aureus); assay: Inhibition of NorA efflux pump in Staphylococcus aureus 1199B assessed as reduction in Norfloxacin MIC at 1 ug/ml
[12] = target: T2, Quinolone resistance protein NorA (Staphylococcus aureus); assay: Inhibition of NorA efflux pump in Staphylococcus aureus 1199B assessed as reduction in ethidium bromide MIC
Plasmodium falciparum = assay: Antiplasmodial activity against chloroquine-resistant Plasmodium falciparum; assay type: functional, organism-based
[13] = Ratio of inhibition of CHO cells to IC50 for chloroquine-resistant Plasmodium falciparum
Staphylococcus aureus [14] = assay: Antimicrobial activity against Staphylococcus aureus RN4220 expressing MsrA protein; assay type: functional, organism-based
Staphylococcus aureus [15] = assay: Antimicrobial activity against Staphylococcus aureus XU212 expressing tetK pump; assay type: functional, organism-based
Staphylococcus aureus [16] = assay: Antimicrobial activity against Staphylococcus aureus 1199B expressing NorA pump; assay type: functional, organism-based
[17] = target: T2, Quinolone resistance protein NorA (Staphylococcus aureus); assay: Inhibition of NorA efflux pump in methicillin-resistant Staphylococcus aureus assessed as reduction in methicillin MIC

SMILES: CC[n+]1c(-c2ccccc2)c2cc(N)ccc2c2ccc(N)cc21.[Br-] [HOMIDIUM BROMIDE]
MIC (Staphylococcus aureus [1]): 0.63 µg/mL | MIC (Staphylococcus aureus [2]): 100 µg/mL | MIC (Staphylococcus aureus [3]): 0.63 µg/mL | MIC (Staphylococcus aureus [4]): 6.25 µg/mL

IC50 [5]: 8 µM
SMILES: COC(=O)[C@H]1[C@H]2C[C@@H]3c4[nH]c5cc(OC)ccc5c4CCN3C[C@H]2C[C@@H](OC(=O)c2cc(OC)c(OC)c(OC)c2)[C@@H]1OC [RESERPINE]

SMILES: CC(C)c1c(O)ccc2c1CC[C@H]1C(C)(C)CCC[C@]21C [TOTAROL]
fold change (FC) (Staphylococcus aureus [6]): 4 | fold change (FC) [7]: 50 | Activity [8]: Active | MIC (Staphylococcus aureus [1]): 16 µg/mL (≈ 55.9 µM) | fold change (FC) (Staphylococcus aureus [9]): 8 | MIC (Staphylococcus aureus [10]): 2 µg/mL (≈ 6.98 µM) | fold change (FC) [11]: 4 | MIC (Staphylococcus aureus [2]): 16 µg/mL (≈ 55.9 µM) | Activity [12]: Active | MIC (Staphylococcus aureus [3]): 1.25 µg/mL (≈ 4.36 µM) | IC50 (Plasmodium falciparum): 4.29 µM | MIC (Staphylococcus aureus [4]): 2.5 µg/mL (≈ 8.73 µM) | Ratio [13]: 40 | Activity (Staphylococcus aureus [14]): Active | Activity (Staphylococcus aureus [15]): Active | IC50 [5]: 15 µM | Activity (Staphylococcus aureus [16]): Active | fold change (FC) [17]: 8

Reference: ChEMBL document CHEMBL1137021, “The phenolic diterpene totarol inhibits multidrug efflux pump activity in Staphylococcus aureus” (Antimicrob Agents Chemother, 2007)
